In US20180170904A1, “PYRIDIN-3-YL ACETIC ACID DERIVATIVES AS INHIBITORS OF HUMAN IMMUNODEFICIENCY VIRUS REPLICATION” (priority 2015, published 2018):
Like-named read-outs stand apart in the source and are kept apart here.

System: NL-RLuc virus (recombinant NL4-3 proviral clone with Renilla Luciferase gene)
Assay: Inhibition of HIV replication (NL-RLuc reporter virus in MT-2 cells)
Assay type: cell-based
Conditions: Renilla, NL43, 120 h
Summary of the method: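 Antiviral EC50 came from luciferase signal after 5-day multicycle replication of NL-RLuc virus in MT-2 cells with serially diluted compound (RPMI 1640, 10% heat-inactivated FBS), fitted by the median effect equation over at least 2 experiments.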

| SMILES | EC50 (read-out: Activity) [µM] | EC50 (read-out: EC50 μM) [µM] |
| --- | --- | --- |
| CC(=O)NNC(=O)c1ccc(-c2c(C)nc(C)c([C@H](OC(C)(C)C)C(=O)O)c2N2CCC(C)(C)CC2)cc1 [Example 37, (S)-2-(5-(4-(2-Acetylhydrazinecarbonyl)phenyl)-4-(4,4-dimethylpiperidin-1-yl)-2,6-dimethylpyridin-3-yl)-2-(tert-butoxy)acetic acid] | > 1 | 1.15 |
| Cc1nc(C)c([C@H](OC(C)(C)C)C(=O)O)c(N2CCC(C)(C)CC2)c1-c1ccc(-c2ccc(Cl)cc2)cc1 [Example 11, (S)-2-(tert-Butoxy)-2-(5-(4′-chloro-[1,1′-biphenyl]-4-yl)-4-(4,4-dimethylpiperidin-1-yl)-2,6-dimethylpyridin-3-yl)acetic acid] | 0.1 to 1 | 0.135 |
| Cc1cccc(-c2ccc(-c3c(C)nc(C)c([C@H](OC(C)(C)C)C(=O)O)c3N3CCC(C)(C)CC3)cc2)c1 [Example 17, (S)-2-(tert-Butoxy)-2-(4-(4,4-dimethylpiperidin-1-yl)-2,6-dimethyl-5-(3′-methyl-[1,1′-biphenyl]-4-yl)pyridin-3-yl)acetic acid] | < 0.1 | 0.053 |
| Cc1nc(C)c([C@H](OC(C)(C)C)C(=O)O)c(N2CCC(C)(C)CC2)c1-c1ccc(-c2ncc(-c3ccc(F)cc3)s2)cc1 [Example 6, (S)-2-(tert-Butoxy)-2-(4-(4,4-dimethylpiperidin-1-yl)-5-(4-(5-(4-fluorophenyl)thiazol-2-yl)phenyl)-2,6-dimethylpyridin-3-yl)acetic acid] | < 0.1 | – |
| Cc1nc(C)c([C@H](OC(C)(C)C)C(=O)O)c(N2CC(C)CC(C)C2)c1-c1ccc(C(=O)NCc2ccccc2)cc1 (stereo partly drawn) [Example 53] | 0.1 to 1 | – |
| Cc1nc(C)c([C@H](OC(C)(C)C)C(=O)O)c(N2CC(C)(C)C2)c1-c1ccc(C(=O)NCc2ccccc2)cc1 [Example 57, (S)-2-(5-(4-(Benzylcarbamoyl)phenyl)-4-(3,3-dimethylazetidin-1-yl)-2,6-dimethylpyridin-3-yl)-2-(tert-butoxy)acetic acid] | > 1 | 2.54 |
| Cc1nc(C)c([C@H](OC(C)(C)C)C(=O)O)c(N2CCC(C)(C)CC2)c1-c1ccc(C(C)(C)O)cc1 [Example 38, (S)-2-(tert-Butoxy)-2-(4-(4,4-dimethylpiperidin-1-yl)-5-(4-(2-hydroxypropan-2-yl)phenyl)-2,6-dimethylpyridin-3-yl)acetic acid] | < 0.1 | – |
| Cc1nc(C)c([C@H](OC(C)(C)C)C(=O)O)c(N2CCC(C)(C)CC2)c1-c1cc(F)c(CO)c(F)c1 [Example 34, (S)-2-(tert-Butoxy)-2-(5-(3,5-difluoro-4-(hydroxymethyl)phenyl)-4-(4,4-dimethylpiperidin-1-yl)-2,6-dimethylpyridin-3-yl)acetic acid] | < 0.1 | – |
| Cc1nc(C)c([C@H](OC(C)(C)C)C(=O)O)c(N2CCC(C)(C)CC2)c1-c1ccc(N2CCCCC2)cc1 [Example 29, (S)-2-(tert-Butoxy)-2-(4-(4,4-dimethylpiperidin-1-yl)-2,6-dimethyl-5-(4-(piperidin-1-yl)phenyl)pyridin-3-yl)acetic acid] | < 0.1 | – |
| CNS(=O)(=O)c1ccc(-c2c(C)nc(C)c([C@H](OC(C)(C)C)C(=O)O)c2N2CCC(C)(C)CC2)cc1 [Example 32, (S)-2-(tert-Butoxy)-2-(4-(4,4-dimethylpiperidin-1-yl)-2,6-dimethyl-5-(4-(N-methylsulfamoyl)phenyl)pyridin-3-yl)acetic acid] | 0.1 to 1 | – |
| Cc1nc(C)c([C@H](OC(C)(C)C)C(=O)O)c(N2CCC(C)(C)CC2)c1-c1ccc(-c2ncc(Cc3ccc(F)cc3)o2)cc1 [Example 4, (S)-2-(tert-Butoxy)-2-(4-(4,4-dimethylpiperidin-1-yl)-5-(4-(5-(4-fluorobenzyl)oxazol-2-yl)phenyl)-2,6-dimethylpyridin-3-yl)acetic acid] | < 0.1 | – |
| Cc1nc(C)c([C@H](OC(C)(C)C)C(=O)O)c(N2CCC(C)(C)CC2)c1-c1ccc(N(CCO)CCc2ccc(F)cc2)cc1 [Example 77, (S)-2-(tert-Butoxy)-2-(4-(4,4-dimethylpiperidin-1-yl)-5-(4-((4-fluorophenethyl)(2-hydroxyethyl)amino)phenyl)-2,6-dimethylpyridin-3-yl)acetic acid] | < 0.1 | – |
| Cc1nc(C)c([C@H](OC(C)(C)C)C(=O)O)c(N2CCC(C)(C)CC2)c1-c1ccc(-c2ccccn2)cc1 [Example 13, (S)-2-(tert-butoxy)-2-(4-(4,4-dimethylpiperidin-1-yl)-2,6-dimethyl-5-(4-(pyridin-2-yl)phenyl)pyridin-3-yl)acetic acid] | < 0.1 | – |
| Cc1nc(C)c([C@H](OC(C)(C)C)C(=O)O)c(N2CCC(C)(C)CC2)c1-c1ccc(C(O)CCc2ccc(F)cc2)cc1 (stereo partly drawn) [Example 51, (2S)-2-(tert-Butoxy)-2-(4-(4,4-dimethylpiperidin-1-yl)-5-(4-(3-(4-fluorophenyl)-1-hydroxypropyl)phenyl)-2,6-dimethylpyridin-3-yl)acetic acid] | < 0.1 | – |
| Cc1nc(C)c([C@H](OC(C)(C)C)C(=O)O)c(N2CCC(C)(C)CC2)c1-c1ccc(C(=O)NCc2ccccc2)cc1 [Example 24, (S)-2-(5-(4-(Benzylcarbamoyl)phenyl)-4-(4,4-dimethylpiperidin-1-yl)-2,6-dimethylpyridin-3-yl)-2-(tert-butoxy)acetic acid] | < 0.1 | – |
| Cc1nc(C)c([C@H](OC(C)(C)C)C(=O)O)c(N2CCC(C)(C)CC2)c1-c1ccc(-c2ccc(OC(C)C)cc2)cc1 [Example 10, (S)-2-(tert-Butoxy)-2-(4-(4,4-dimethylpiperidin-1-yl)-5-(4′-isopropoxy-[1,1′-biphenyl]-4-yl)-2,6-dimethylpyridin-3-yl)acetic acid] | < 0.1 | – |
| Cc1nc(C)c([C@H](OC(C)(C)C)C(=O)O)c(N2CCC(C)(C)CC2)c1-c1ccc(NCCc2ccc(F)cc2)cc1 [Example 73, (S)-2-(tert-Butoxy)-2-(4-(4,4-dimethylpiperidin-1-yl)-5-(4-((4-fluorophenethyl)amino)phenyl)-2,6-dimethylpyridin-3-yl)acetic acid] | < 0.1 | – |
| COC1(C)CCN(c2c(-c3ccc(C(=O)NCc4ccccc4)cc3)c(C)nc(C)c2[C@H](OC(C)(C)C)C(=O)O)CC1 [Example 60, (S)-2-(5-(4-(Benzylcarbamoyl)phenyl)-4-(4-methoxy-4-methylpiperidin-1-yl)-2,6-dimethylpyridin-3-yl)-2-(tert-butoxy)acetic acid] | < 0.1 | – |
| Cc1nc(C)c([C@H](OC(C)(C)C)C(=O)O)c(N2CCC(C)(C)CC2)c1-c1ccc(N(C)CCc2ccc(F)cc2)cc1 [Example 76, (S)-2-(tert-Butoxy)-2-(4-(4,4-dimethylpiperidin-1-yl)-5-(4-((4-fluorophenethyl)(methyl)amino)phenyl)-2,6-dimethylpyridin-3-yl)acetic acid] | < 0.1 | – |
| Cc1nc(C)c([C@H](OC(C)(C)C)C(=O)O)c(N2CCC(C3CC3)C2)c1-c1ccc(C(=O)NCc2ccccc2)cc1 (stereo partly drawn) [Example 55, (2S)-2-(5-(4-(Benzylcarbamoyl)phenyl)-4-(3-cyclopropylpyrrolidin-1-yl)-2,6-dimethylpyridin-3-yl)-2-(tert-butoxy)acetic acid] | < 0.1 | 0.053 |
| CCCOc1ccc(-c2ccc(-c3c(C)nc(C)c([C@H](OC(C)(C)C)C(=O)O)c3N3CCC(C)(C)CC3)cc2)cc1 [Example 9, (S)-2-(tert-Butoxy)-2-(4-(4,4-dimethylpiperidin-1-yl)-2,6-dimethyl-5-(4′-propoxy-[1,1′-biphenyl]-4-yl)pyridin-3-yl)acetic acid] | < 0.1 | – |
| CCOC(=O)Nc1ccc(-c2c(C)nc(C)c([C@H](OC(C)(C)C)C(=O)O)c2N2CCC(C)(C)CC2)cc1 [Example 71, (S)-2-(tert-Butoxy)-2-(4-(4,4-dimethylpiperidin-1-yl)-5-(4-((ethoxycarbonyl)amino)phenyl)-2,6-dimethylpyridin-3-yl)acetic acid] | < 0.1 | – |
